Assay results as given in PMC12564639, “Discovery of a Novel Anticoagulant Cystine Knot Peptide from Spider Venom Gland Transcriptome” (International Journal of Molecular Sciences, 2025).
Peptide text beside a SMILES is read from it.

Experiments:
[1] = system: murine macrophage (RAW264.7); test: Cytotoxicity (CCK-8), RAW264.7; assay type: cell-based; set-up: cytotoxicity RAW264.7: dose or concentration left out as unconfirmed; settings: 24 h, n = 3
Experimental: The cytotoxicity of GC38 was evaluated in human embryonic kidney cells (HEK293T), human keratinocytes (HaCaT), and murine macrophage (RAW264.7) cell lines. The cells were from Kunming Cell Bank, Chinese Academy of Sciences. HEK293T and HaCaT cells were cultured in DMEM supplemented with 10% fetal bovine serum (FBS) and 1% penicillin-streptomycin, and RAW264.7 cells were maintained in RPMI 1640 containing 10% FBS and 1% penicillin–streptomycin, with all cell lines incubated at 37 °C under 5% CO2. For cytotoxicity assessment, cells were seeded at a density of 1 × 10^5 cells per well in 96-well plates and incubated for 12 h. […] After 24 h incubation, cell viability was determined using the CCK-8 assay (10 μL/well). Absorbance was measured at 450 nm using a multi-mode microplate reader (BioTek Synergy™ H1, Winooski, VT, USA). Untreated cells and cells treated with 10% DMSO served as negative and positive controls, respectively. Viability percentages were calculated relative to the untreated control. All experiments were conducted in triplicate, and data were expressed as mean ± SEM.

[2] = system: FeCl3-induced carotid artery thrombosis in mice; test: FeCl3-induced carotid artery thrombosis model; assay type: in vivo, C57BL/6J mice; settings: for blood flow reduction, carotid artery: 10 min before FeCl3, n = 6
Experimental: The C57BL/6J mice (male, 6–8 weeks old) were purchased from Beijing Vital River Laboratory Animal Technology Co., Ltd. (Beijing, China). All animal studies were performed under the approval of the Ethics Committee of the Laboratory Animal Welfare of the Kunming Institute of Zoology, Chinese Academy of Sciences (IACUC-RE-2025-03-010).
Male C57BL/6J mice (6–8 weeks old, n = 6 per group) were randomly assigned to groups receiving intravenous injections of PBS (vehicle control), GC38 (2 or 4 mg/kg in PBS), and heparin sodium (1000 U/kg), respectively. Ten minutes post-injection, mice were anesthetized with 2% isoflurane inhalation. The right carotid artery was surgically exposed, and endothelial injury was induced by applying a 1 × 2 mm filter paper saturated with 10% (w/v) FeCl3 solution for 30 s. Real-time blood flow was monitored using a real-time laser speckle perfusion (LSP) imaging system (RWD Life Science, Shenzhen, China) with SIM BFI software (SIM BFI HR Pro, Simopto, Beijing, China). Thrombosis progression and vessel occlusion were evaluated using real-time ultrasound imaging of the region of interest at baseline (before injury), 5, and 10 min (post-injury). The perfusion unit was recorded to quantify the blood flow. Vessel occlusion was defined as a sustained reduction in perfusion units to ≤10% of baseline for at least 3 min. Data are presented as mean ± SEM.

Structure (SMILES): CSCC[C@@H]1NC(=O)[C@H](CC(N)=O)NC(=O)CNC(=O)CNC(=O)[C@H](Cc2c[nH]cn2)NC(=O)[C@H](CCCNC(=N)N)NC(=O)CNC(=O)[C@@H]2CSSC[C@@H]3NC(=O)[C@H](CCCNC(=N)N)NC(=O)[C@H](C)NC(=O)CNC(=O)[C@H](CCCCN)NC(=O)CNC(=O)[C@H](CO)NC(=O)[C@@H](NC(=O)CN)CSSC[C@H](NC(=O)[C@H](CSSC[C@@H](C(=O)N[C@@H](CCC(=O)O)C(=O)N[C@@H](Cc4c[nH]c5ccccc45)C(=O)N[C@@H](CC(N)=O)C(=O)N[C@@H](Cc4c[nH]c5ccccc45)C(=O)N[C@@H](CCCCN)C(=O)N[C@H](C(=O)NCC(=O)O)[C@@H](C)O)NC(=O)[C@H](CO)NC(=O)[C@H](CCCCN)NC(=O)[C@H](Cc4ccc(O)cc4)NC1=O)NC(=O)[C@H](CCCCN)NC(=O)[C@H](CO)NC(=O)[C@@H]1CCCN1C(=O)[C@H](C)NC3=O)C(=O)N[C@@H](CO)C(=O)NCC(=O)N[C@@H](CC(C)C)C(=O)N[C@@H](CO)C(=O)N2 [GC38] (HELM PEPTIDE1{G.C.S.G.K.G.A.R.C.A.P.S.K.C.C.S.G.L.S.C.G.R.H.G.G.N.M.Y.K.S.C.E.W.N.W.K.T.G}$PEPTIDE1,PEPTIDE1,2:R3-15:R3|PEPTIDE1,PEPTIDE1,9:R3-20:R3|PEPTIDE1,PEPTIDE1,14:R3-31:R3$$$V2.0)
- cell viability RAW264.7 ([1]; 50 μM, serum-free medium, CCK-8, 450 nm, relative to untreated control): greater than 95%
- cytotoxicity RAW264.7 ([1]; CCK-8): negligible cytotoxicity
- FeCl3-induced vascular occlusion ([2]; 2 and 4 mg/kg i.v., Doppler flowmetry / laser speckle perfusion): alleviated FeCl3-induced vascular occlusion in mice
- blood flow reduction, carotid artery ([2]; GC38 2 mg/kg i.v., 5 min after 10% FeCl3): 20.6%
- blood flow reduction, carotid artery ([2]; GC38 2 mg/kg i.v., 10 min after 10% FeCl3): 44.0%
- blood flow reduction, carotid artery ([2]; GC38 4 mg/kg i.v., 5 min after 10% FeCl3): 11.8%
- blood flow reduction, carotid artery ([2]; GC38 4 mg/kg i.v., 10 min after 10% FeCl3): 29.4%
